From patent US10350213B2 (AI Therapeutics, Inc., priority 2015, dated 2019)

Assays:
[1] = system: Jurkat (Human T-cell leukemia); experiment: CellTiterGlo cell viability assay; type: cell-based
[2] = system: U-87 MG (Human neuroblastoma); experiment: CellTiterGlo cell viability assay; type: cell-based
[3] = system: MiaPaCa-2 (Human pancreatic cancer); experiment: CellTiterGlo cell viability assay; type: cell-based; details: MIA PaCa-2
[4] = system: 456 kinases (PIKfyve not included); experiment: Kinase panel binding screen (DiscoveRx); details: screening concentration 1 μM
From the text: Next, apilimod was screened against a comprehensive panel of kinases (PIKfyve not included).

IL-12/IL-23 synthesis = details: oral administration; patients with psoriasis; Wada et al. 2012; cited from earlier work
[5] = system: THP1 (Human acute monocytic leukemia); experiment: CellTiterGlo cell viability assay; type: cell-based; details: THP-1
[6] = system: non-cancer (normal) cells; experiment: Cell viability assay, non-cancer (normal) cells; type: cell-based
From the text: (§1) This is exemplified in FIG. 2A for the HCT116 colorectal carcinoma cells. […] And all NHL subtypes were sensitive in this assay, including mantle, follicular, Burkitt's, DLBCL-ABC, DLBCL-GCB, and double-hit DLBCL.

[7] = system: PC-3 (Human prostate cancer); experiment: CellTiterGlo cell viability assay; type: cell-based
[8] = system: A549 (Human lung carcinoma); experiment: CellTiterGlo cell viability assay; type: cell-based
[9] = system: PANC1 (Human pancreatic cancer); experiment: CellTiterGlo cell viability assay; type: cell-based; details: PANC-1
[10] = system: HT (Human Diffuse Large B Cell Lymphoma -GCB); experiment: CellTiterGlo cell viability assay; type: cell-based; details: Human DLBCL-GCB
Experimental: (§2) Briefly, test compounds (5 μl stock solution, 6×desired final well concentration) were dispensed to 384-well assay plates, TSC2−/− MEF cells (1000 cells per well in 25 μL of media) were added to the plates and the plates were incubated for 72 h (3 days) at 37° C. under an atmosphere of 5% CO2 in a humidified incubator for 3 days. Cell viability was determined with CellTiter-Glo® luminescence assay (Promega) per the manufacturer's instructions. Viability was expressed as a percentage of untreated control cells.
(§3) 35 cell lines were identified as sensitive to apilimod-induced cytotoxicity in this assay. The apilimod-sensitive cells included cells derived from several different cancers including non-Hodgkin's lymphoma, Hodgkin's lymphoma, colorectal cancer, and lung cancer. The most sensitive of those tested were non-Hodgkin's Lymphoma (NHL) cell lines. […] The only NHL subtype not sensitive in this assay was follicular.

[11] = system: COLO-320DM (Human Colorectal); experiment: CellTiterGlo cell viability assay; type: cell-based
Experimental: as §2, §3

[12] = system: H1734 (Human lung carcinoma); experiment: CellTiterGlo cell viability assay; type: cell-based; details: NCI-H1734
Experimental: as §2, §3

[13] = system: CA46 (Human Burkitt's lymphoma); experiment: CellTiterGlo cell viability assay; type: cell-based
Experimental: as §2, §3

[14] = system: NCI-1975 (Human lung carcinoma); experiment: CellTiterGlo cell viability assay; type: cell-based
Experimental: as §2, §3

[15] = system: JeKo-1 (Human Mantle Cell Lymphoma); experiment: CellTiterGlo cell viability assay; type: cell-based
Experimental: as §2, §3

[16] = system: HCT116 (Human colorectal cancer); experiment: CellTiterGlo cell viability assay; type: cell-based; details: HCT-116
Experimental: as §2, §3

[17] = system: HD-MyZ (Human Hodgkin's lymphoma); experiment: CellTiterGlo cell viability assay; type: cell-based
Experimental: as §2, §3

[18] = system: Daudi (Human Burkitt's lymphoma); experiment: CellTiterGlo cell viability assay; type: cell-based
Experimental: as §2, §3

[19] = system: HH (Human T-cell lymphoma); experiment: CellTiterGlo cell viability assay; type: cell-based
Experimental: as §2, §3

[20] = system: KG-1 (Human acute myelogenous leukemia); experiment: CellTiterGlo cell viability assay; type: cell-based
Experimental: as §2, §3

[21] = system: Pfeiffer (Human Diffuse Large B Cell Lymphoma -GCB); experiment: CellTiterGlo cell viability assay; type: cell-based; details: Human DLBCL-GCB
Experimental: as §2, §3

[22] = system: L540 (Human Hodgkin's lymphoma); experiment: CellTiterGlo cell viability assay; type: cell-based; details: L-540
Experimental: as §2, §3

SW620 (Human Colorectal) = experiment: CellTiterGlo cell viability assay; type: cell-based; details: SW-620
Experimental: as §2, §3

[23] = system: ST486 (Human Burkitt's lymphoma); experiment: CellTiterGlo cell viability assay; type: cell-based
Experimental: as §2, §3

[24] = system: H1693 (Human lung carcinoma); experiment: CellTiterGlo cell viability assay; type: cell-based; details: NCI-H1693
Experimental: as §2, §3

[25] = system: OCI-Ly19 (Human Diffuse Large B Cell Lymphoma -GCB); experiment: CellTiterGlo cell viability assay; type: cell-based; details: Human DLBCL-GCB
Experimental: as §2, §3

[26] = system: Toledo (Human Diffuse Large B Cell Lymphoma -GCB); experiment: CellTiterGlo cell viability assay; type: cell-based; details: Human DLBCL-GCB
Experimental: as §2, §3

[27] = system: A172 (Human neuroblastoma); experiment: CellTiterGlo cell viability assay; type: cell-based; details: A 172
Experimental: as §2, §3

[28] = system: SUDHL-1 (Human Anaplastic Large Cell Lymphoma); experiment: CellTiterGlo cell viability assay; type: cell-based; details: SU-DHL-1
Experimental: as §2, §3

H4 (Human neuroglioma) = experiment: CellTiterGlo cell viability assay; type: cell-based
[29] = system: TSC2−/− mouse embryonic fibroblasts (TSC2−/− MEF) cells; experiment: High throughput cell viability screen (CellTiter-Glo); type: cell-based; details: 72 h
Experimental: as §2

[30] = system: non-Hodgkin's Lymphoma (NHL) cell lines; experiment: 3-day CellTiterGlo assay, NHL cell lines; type: cell-based, human; details: sensitive if IC50 less than 500 nM; 3-day assay
From the text: as §3

[31] = system: 22RV1 (Human prostate cancer); experiment: CellTiterGlo cell viability assay; type: cell-based
[32] = system: DU145 (Human prostate cancer); experiment: CellTiterGlo cell viability assay; type: cell-based; details: DU-145
all cell lines = experiment: Longer cell viability assays (3, 5, and 7 days); type: cell-based; details: 168 h, 7-day exposure
From the text: as §1

[33] = Homo sapiens, 72 h, 3-day CellTiterGlo assay

Cc1cccc(/C=N/Nc2cc(N3CCOCC3)nc(OCCc3ccccn3)n2)c1 [apilimod]
IC50 [1]: 200 nM | IC50 [2]: > 10000 nM | IC50 [3]: > 2000 nM | binding to kinase panel [4]: did not bind to any of the 456 kinases tested | immunomodulatory activity (IL-12/IL-23 synthesis): showed immunomodulatory activity | IC50 [5]: > 10000 nM | IC50 [6]: 15800 nM | IC50 [7]: 10000 nM | IC50 [8]: 110 nM | IC50 [9]: > 2000 nM | IC50 [10]: 642 nM | IC50 [11]: 2060 nM | IC50 [12]: 1500 nM | IC50 [13]: > 10000 nM | IC50 [14]: > 10000 nM | IC50 [15, 33]: < 100 nM | IC50 ([15]; Human Mantle Cell Lymphoma): 70 nM | IC50 [16]: 125 nM | IC50 [17]: > 1000 nM | IC50 [18]: 200 nM | IC50 [19]: 3300 nM | IC50 [20]: > 2500 nM | IC50 [21]: 2620 nM | IC50 [22]: > 1000 nM | IC50 (SW620 (Human Colorectal)): 90 nM | IC50 [23, 33]: < 100 nM | IC50 ([23]; Human Burkitt's lymphoma): 25 nM | IC50 [24]: 2000 nM | IC50 [25]: 380 nM | IC50 [26]: 270 nM | IC50 [27]: 2000 nM | IC50 [28]: 590 nM | IC50 (H4 (Human neuroglioma)): 250 nM | viability at 0.5 µM ([29]; MEF-EV, 0.5 μM, Mean+/−StDev, n=3, read-out: cell viability (percentage of untreated control cells)): 2.16% | viability at 5 µM ([29]; MEF-EV, 5 μM, Mean+/−StDev, n=3, read-out: cell viability (percentage of untreated control cells)): 1.94% | IC50 ([29]; TSC2−/− MEF cells, 10 point dose-response): 19.5 nM | share of NHL cell lines sensitive to apilimod [30]: over 50% | IC50 [31]: > 5000 nM | IC50 [32]: > 2000 nM | IC50 (all cell lines): < 125 nM
